From patent US20020103192A1, “Inhibitors of histone deacetylase” (priority 2000, published 2002) come the findings set out here.

SMILES strings stand for the structures.

For orientation: melting point means the temperature of the solid-liquid transition.

`CNC(=O)C(=O)CCCCCCSc1ccc2ccccc2c1` [Example 106, N-methyl-8-(2-naphthylsulfanyl)-2-oxooctanamide] gave a melting point of 94 to 95 °C.
As for `CNC(=O)C(=O)CCCCCCS(=O)(=O)c1ccc2ccccc2c1` [Example 107, N-methyl-8-(2-naphthylsulfonyl)-2-oxooctanamide], the figure is 108 to 109 °C; as for `CNC(=O)C(=O)CCCCCCSc1ccc(-c2ccccc2)cc1` [Example 108, 8-((1,1′-biphenyl)-4-ylsulfanyl)-N-methyl-2-oxooctanamide], 131 to 132 °C.
The same measure for `O=C(NCCCCCCC(=O)c1ncco1)c1cc2ccccc2[nH]1` [Example 110, N-(7-(1 ,3-oxazol-2-yl)-7-oxoheptyl)-1H-indole-2-carboxamide]: 153 to 156 °C.
The same measure for `O=C(CCCCCCS(=O)(=O)c1ccccc1)c1ncco1` [Example 103, 1-(1,3-oxazol-2-yl)-7-(phenylsulfonyl)-1-heptanone]: 55 to 56 °C.
Turning to `CC(=O)C(=O)CCCCCCOc1ccc(-c2ccccc2)cc1` [Example 113, 9-((1,1′-biphenyl)-4-yloxy)-2,3-nonanedione], the melting point lay within 110 to 111 °C.
In turn, `O=C(CCCCCCSc1ccccc1)c1ncco1` [Example 102, 1-(1,3-oxazol-2-yl)-7-(phenylsulfanyl)-1-heptanone] came in with a melting point of 39 to 40 °C.
As to `O=C(CCCCCCS(=O)(=O)c1ccc2ccccc2c1)c1ncco1` [Example 105, 7-(2-naphthylsulfonyl)-1-(1,3-oxazol-2-yl)-1-heptanone], the melting point is 75 to 76 °C.
Compound `O=C(CCCCCCSc1ccc2ccccc2c1)c1ncco1` [Example 104, 7-(2-naphthylsulfanyl)-1-(1,3-oxazol-2-yl)-1-heptanone] had a melting point of 65 to 66 °C.
As for `O=C(NCCCCCC(=O)c1ncco1)c1cc2ccccc2[nH]1` [Example 111, N-(6-(1,3-oxazol-2-yl)-6-oxohexyl)-1H-indole-2-carboxamide], the figure is 176 to 179 °C.
